Data taken from article PMC6838069, “Biochemical characterization and chemical validation of Leishmania MAP Kinase-3 as a potential drug target” (Scientific Reports, 2019).

Target: T1, LdMAPK3 (Leishmania donovani, UniProt A0A3S7WR45)
T1 construct: gene LdCL_100012100; pET-28a BamHI/HindIII, His6-tagged (~48 kDa on gel, tag not reported cut), E. coli BL21(DE3), Ni-NTA
T1 sequence (A0A3S7WR45 1-388): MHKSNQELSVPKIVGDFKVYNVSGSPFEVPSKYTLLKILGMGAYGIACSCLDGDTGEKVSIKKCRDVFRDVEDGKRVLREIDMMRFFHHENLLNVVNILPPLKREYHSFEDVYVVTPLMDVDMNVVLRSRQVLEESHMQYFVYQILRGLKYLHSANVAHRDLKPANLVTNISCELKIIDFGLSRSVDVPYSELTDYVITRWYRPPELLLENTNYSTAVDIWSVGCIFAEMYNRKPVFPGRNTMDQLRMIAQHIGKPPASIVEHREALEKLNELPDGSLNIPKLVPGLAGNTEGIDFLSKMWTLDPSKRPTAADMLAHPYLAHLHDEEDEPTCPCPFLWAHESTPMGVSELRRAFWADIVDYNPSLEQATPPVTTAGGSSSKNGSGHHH
Assay: Kinase-Glo Plus luminescent ATP depletion; Dixon plot
Format: biochemical

Row | Structure (SMILES) | Ki [µM]
1 | O=c1c(-c2ccc(O)cc2)coc2cc(O)cc(O)c12 [GEN, genistein] | 3.76 ± 0.28
2 | O=c1cc(-c2ccccc2)oc2cc(O)cc(O)c12 [CHY, 5,7-dihydroxyflavone] | 8.75 ± 0.11
